Source: ChEMBL document CHEMBL4052756, “α-Pyrone derivatives with cytotoxic activities, from the endophytic fungus Phoma sp. YN02-P-3” (Bioorg Med Chem Lett, 2017)

Assays:
Type in all cases: functional, cell-based
HCT-116 = assay: Cytotoxic activity against human HCT116 cells
HL-60 = assay: Cytotoxic activity against human HL60 cells
PC-3 = assay: Cytotoxic activity against human PC3 cells

SMILES | IC50 (HCT-116) [µM] | IC50 (HL-60) [µM] | IC50 (PC-3) [µM]
COc1c(CO)c(/C=C/C(=O)O)oc(=O)c1CO | > 50 | > 50 | > 50
COC(=O)C1C(c2oc(=O)c(CO)c(OC)c2CO)C(C(=O)OC)C1c1oc(=O)c(CO)c(OC)c1CO (stereo not drawn) | > 50 | > 50 | > 50
COC(=O)/C=C/c1oc(=O)c(COC(C)=O)c(OC)c1COC(C)=O | 1.32 | 0.52 | 0.98
COC(=O)/C=C/c1oc(=O)c(COC(C)=O)c(OC)c1CO | 2.31 | 0.65 | 1.09
COc1c(C)c(/C=C/C(=O)O)oc(=O)c1C | > 50 | > 50 | > 50
COc1c(C)c(/C=C/C(=O)O)oc(=O)c1CO | > 50 | > 50 | > 50
COC(=O)/C=C/c1oc(=O)c(CO)c(OC)c1COC(C)=O | 9.84 | 1.04 | 5.9
COC(=O)C1C(c2oc(=O)c(COC(C)=O)c(OC)c2COC(C)=O)C(C(=O)OC)C1c1oc(=O)c(COC(C)=O)c(OC)c1COC(C)=O (stereo not drawn) |  | 4.56 | 
O=c1[nH]cc(F)c(=O)[nH]1 [FLUOROURACIL] | 17 | 2.8 | 1.6
COC(=O)/C=C/c1oc(=O)c(CO)c(OC)c1CO | > 50 | > 50 | > 50
